Values quoted from earlier work as cited in PubChem BioAssay AID1259410 (Chemical Carcinogenesis Research Information System (CCRIS), 2018).

Tested on: rodent tumor promotion studies, tumor incidence
Test: CCRIS tumor promotion studies

For `CCOc1ccc(NC(C)=O)cc1`, the outcome (Carcinogen: DIHYDROXY-DI-N-PROPYLNITROSAMINE, 53609-64-6, URACIL, 66-22-8, Carcinogen: DIHYDROXY-DI-N-PROPYLNITROSAMINE, 53609-64-6, URACIL, 66-22-8, Doses [Carcinogen]: 0.1% DHPN IN DRINKING WATER AND 3% URACIL IN THE DIET FOR 4 WK, Doses [Promoter]: 0, 2% IN DIET BEGINNING 1 WK POST CARCINOGEN TREATMENT AND CONTINUING FOR 35 WK (STUDY DURATION: 40 WK), Route [Carcinogen]: ORAL, ORAL, Route [Promoter]: ORAL, Species: RAT, Strain/Sex: F344/MALE) is listed as “kidney: adenoma or adenocarcinoma; urinary bladder: papilloma”, the outcome (Carcinogen: N-BUTYL-N-(4-HYDROXYBUTYL)NITROSAMINE, 3817-11-6, Doses [Carcinogen]: 0.05% IN DRINKING WATER FOR 4 WK, Doses [Promoter]: 0, 2% IN DIET FOR 8 WK AND 3 WK WITH A 4 WK INTERVAL BETWEEN TREATMENTS ADMINISTERED PRIOR TO CARCINOGEN TREATMENT (STUD, Route [Carcinogen]: ORAL, Route [Promoter]: ORAL, Species: MOUSE, Strain/Sex: NON/SHI/MALE) is listed as “renal pelvis: carcinoma” and the outcome (Carcinogen: N-BUTYL-N-(4-HYDROXYBUTYL)NITROSAMINE, Doses [Carcinogen]: 0.01, 0.05% IN DRINKING WATER FOR 4 WK, Doses [Promoter]: 2.5% IN DIET FOR 30 WK FOLLOWED BY CONTROL DIET FOR 6 WK, Route [Carcinogen]: ORAL, Route [Promoter]: ORAL, Species: RAT, Strain/Sex: WISTAR/MALE) is listed as “urinary bladder: papilloma, carcinoma”.

For `C=CCC1(CC=C)C(=O)NC(=O)NC1=O`, the outcome (Carcinogen: N-NITROSODIETHYLAMINE, 55-18-5, Doses [Carcinogen]: 75 MG/KG BW IN 0.85% SALINE ONCE, Doses [Promoter]: 0, 440 PPM IN DIET FOR DURATION OF STUDY BEGINNING 2 WK POST CARCINOGEN DOSE (STUDY DURATION: 78 WK), Route [Carcinogen]: INTRAPERITONEAL, Route [Promoter]: ORAL, Species: RAT, Strain/Sex: F344/MALE) is given as “liver: adenoma, carcinoma”.

In the case of `Clc1cnc(Oc2ccc(Oc3ncc(Cl)cc3Cl)cc2)c(Cl)c1`, the outcome (Carcinogen: N-NITROSODIETHYLAMINE, 55-18-5, Doses [Carcinogen]: 75 MG/KG BW ONCE, Doses [Promoter]: 0, 100O PPM IN DIET FOR DURATION OF STUDY BEGINNING 2 WK POST CARCINOGEN DOSE (STUDY DURATION: 74 WK), Route [Carcinogen]: INTRAPERITONEAL, Route [Promoter]: ORAL, Species: RAT, Strain/Sex: F344/MALE) is given as “liver: adenoma; thyroid: follicular cell adenoma”, the outcome (Carcinogen: N-NITROSODIETHYLAMINE, 55-18-5, Doses [Carcinogen]: 75 MG/KG BW ONCE, Doses [Promoter]: 0, 330 PPM IN DIET FOR DURATION OF STUDY BEGINNING 2 WK POST CARCINOGEN DOSE (STUDY DURATION: 74 WK), Route [Carcinogen]: INTRAPERITONEAL, Route [Promoter]: ORAL, Species: RAT, Strain/Sex: F344/MALE) is given as “liver: adenoma” and the outcome (Carcinogen: N-NITROSODIETHYLAMINE, 55-18-5, Doses [Carcinogen]: 75 MG/KG BW ONCE, Doses [Promoter]: 30 MG/KG IN CORN OIL 1/2 WK BEGINNING 2 WK POST CARCINOGEN DOSE AND CONTINUING FOR 71 WK (STUDY DURATION: 73 WK), Route [Carcinogen]: INTRAPERITONEAL, Route [Promoter]: INTRAPERITONEAL, Species: RAT, Strain/Sex: F344/MALE) is given as “nasal cavity: carcinoma”. For the same molecule, the outcome (Carcinogen: N-NITROSODIETHYLAMINE, 55-18-5, Doses [Carcinogen]: 90 MG/KG BW ONCE, Doses [Promoter]: 3 MG/KG BW IN CORN OIL 1/2 WK BEGINNING 2 WK POST CARCINOGEN DOSE AND CONTINUING FOR 24 WK (STUDY DURATION: 55 WK), Route [Carcinogen]: INTRAPERITONEAL, Route [Promoter]: INTRAGASTRIC, Species: MOUSE, Strain/Sex: C57BL/MALE) was “liver: hepatocellular adenoma or carcinoma”, the outcome (Carcinogen: N-NITROSODIETHYLAMINE, 55-18-5, Doses [Carcinogen]: 90 MG/KG BW ONCE, Doses [Promoter]: 3 MG/KG BW IN CORN OIL 1/2 WK BEGINNING 2 WK POST CARCINOGEN DOSE AND CONTINUING FOR 24 WK (STUDY DURATION: 55 WK), Route [Carcinogen]: INTRAPERITONEAL, Route [Promoter]: INTRAGASTRIC, Species: MOUSE, Strain/Sex: DBA/MALE) was “liver: hepatocellular adenoma or carcinoma” and the outcome (Carcinogen: N-NITROSODIETHYLAMINE, 55-18-5, Doses [Carcinogen]: 90 MG/KG BW ONCE, Doses [Promoter]: 3 MG/KG BW IN CORN OIL 1/2 WK BEGINNING 2 WK POST CARCINOGEN DOSE AND CONTINUING FOR 24 WK (STUDY DURATION: 55 WK), Route [Carcinogen]: INTRAPERITONEAL, Route [Promoter]: INTRAPERITONEAL, Species: MOUSE, Strain/Sex: C57BL/MALE) was “liver: hepatocellular adenoma or carcinoma”. For the same molecule, the outcome (Carcinogen: N-NITROSODIETHYLAMINE, 55-18-5, Doses [Carcinogen]: 90 MG/KG BW ONCE, Doses [Promoter]: 3 MG/KG BW IN CORN OIL 1/2 WK BEGINNING 2 WK POST CARCINOGEN DOSE AND CONTINUING FOR 24 WK (STUDY DURATION: 55 WK), Route [Carcinogen]: INTRAPERITONEAL, Route [Promoter]: INTRAPERITONEAL, Species: MOUSE, Strain/Sex: DBA/MALE) was “liver: hepatocellular adenoma or carcinoma”.

In the case of `CC/C=C/C=C/C=C/C=C/C=C/OC[C@@H](O)CO`, the outcome (Carcinogen: N-METHYL-N-NITROSOUREA, 684-93-5, Doses [Carcinogen]: 2 NG IN 0.5 ML WATER 3/WK FOR 3 WK, Doses [Promoter]: 0, 400 NG IN 0.5 ML BUFFER 2/WK FOR 24 WK BEGINNING 5 WK POST CARCINOGEN TREATMENT (STUDY DURATION: 32 WK), Route [Carcinogen]: INTRARECTAL, Route [Promoter]: INTRARECTAL, Species: RAT, Strain/Sex: F344/FEMALE) is given as “colon: carcinoma”.

In the case of `[O-][Br+2]([O-])O`, the outcome (Carcinogen: 7,12-Dimethylbenz[a]anthracene, 57-97-6, Doses [Carcinogen]: 20 nmole as a single topical application, Doses [Promoter]: 0, 40 mg/ml on skin for 51 wk (study duration: 51 wk), Route [Carcinogen]: Dermal, Route [Promoter]: Dermal, Species: Mouse, Strain/Sex: Sencar/Female (20/group)) is listed as “skin: negative as both a complete carcinogen and as a promoter”, the outcome (Carcinogen: N-ETHYL-N-HYDROXYETHYLNITROSAMINE, 13147-25-6, Doses [Carcinogen]: 500 PPM IN DRINKING WATER FOR 2 WK, Doses [Promoter]: 0, 500 PPM IN DRINKING WATER BEGINNING POST CARCINOGEN TREATMENT AND CONTINUING FOR 24 WK (STUDY DURATION: 26 WK), Route [Carcinogen]: ORAL, Route [Promoter]: ORAL, Species: RAT, Strain/Sex: F344/MALE) is listed as “kidney: tumors” and the outcome (Carcinogen: N-Ethyl-N-hydroxyethylnitrosamine, 13147-25-6, Doses [Carcinogen]: 0.05% in drinking water for 2 wk, Doses [Promoter]: 0, 500 ppm in drinking water beginning post carcinogen treatment and continuing for 30 wk (study duration: 32 wk), Route [Carcinogen]: Oral, Route [Promoter]: Oral, Species: Rat, Strain/Sex: F344/Female (15/group)) is listed as “kidney: renal cell tumors”. For the same molecule, the outcome (Carcinogen: N-Ethyl-N-hydroxyethylnitrosamine, 13147-25-6, Doses [Carcinogen]: 500 ppm in drinking water for 2 wk, Doses [Promoter]: 0, 15, 30, 60, 125, 250, 500 ppm in drinking water beginning post carcinogen treatment and continuing for 24 wk (study d, Doses [Promoter]: 0, 15, 30, 60, 125, 250, 500 ppm in drinking water beginning post carcinogen treatment and continuing for 24 wk (study d, Route [Carcinogen]: Oral, Route [Promoter]: Oral, Species: Rat, Strain/Sex: F344/Male (15/group)) was “kidney: renal cell tumors”.

In the case of `Clc1ccc(-c2ccc(Cl)c(Cl)c2)cc1Cl`, the outcome (Carcinogen: 7,12-DIMETHYLBENZ[A]ANTHRACENE, 57-97-6, Doses [Carcinogen]: 10 MG IN 0.5 ML CORN OIL ONCE, Doses [Promoter]: 0, 10 MG/KG BW ONCE AT TIME OF CARCINOGEN DOSE THEN 500 UG/G OF FAT IN DIET FOR 1 WK ADMINISTERED TO RATS FED HIGH-FAT (, Route [Carcinogen]: GAVAGE, Route [Promoter]: GAVAGE, ORAL, Species: RAT, Strain/Sex: SPRAGUE-DAWLEY/FEMALE) is given as “mammary gland: tumor” and the outcome (Carcinogen: 7,12-DIMETHYLBENZ[A]ANTHRACENE, 57-97-6, Doses [Carcinogen]: 10 MG IN 0.5 ML CORN OIL ONCE, Doses [Promoter]: 0, 10 MG/KG BW ONCE AT TIME OF CARCINOGEN DOSE THEN 500 UG/G OF FAT IN DIET FOR 1 WK ADMINISTERED TO RATS FED LOW FAT (5, Route [Carcinogen]: GAVAGE, Route [Promoter]: GAVAGE, ORAL, Species: RAT, Strain/Sex: SPRAGUE-DAWLEY/FEMALE) is given as “mammary gland: tumor”.

For `ClC1C(Cl)C(Cl)C(Cl)C(Cl)C1Cl` (stereo unspecified), the outcome (Carcinogen: DIETHYLNITROSAMINE, 55-18-5, Doses [Carcinogen]: 5 UG/G BW IN 0.1 ML SALINE ONCE AT 15 D OF AGE, Doses [Promoter]: 0, 250 PPM IN DIET FOR 24 WK BEGINNING AT 28 D OF AGE (STUDY DURATION: 26 WK), Route [Carcinogen]: INTRAPERITONEAL, Route [Promoter]: ORAL, Species: MOUSE, Strain/Sex: B6C3F1/FEMALE) is given as “liver: adenoma”.

For `CCCCCCCCCCCCCCCCCC(=O)O[C@@]12C[C@@H](C)[C@@]3(O)[C@@H](C=C(CO)C[C@]4(O)C(=O)C(C)=C[C@@H]34)[C@@H]1C2(C)C`, the outcome (Carcinogen: 7,12-DIMETHYLBENZ[A]ANTHRACENE, 57-97-6, Doses [Carcinogen]: 100 NMOL ONCE, Doses [Promoter]: 0, 100 NMOL 2/WK FOR 39 WK (STUDY DURATION: 39 WK), Route [Carcinogen]: DERMAL, Route [Promoter]: DERMAL, Species: MOUSE, Strain/Sex: NMRI) is given as “skin: tumor”.

In the case of `CNc1ccccc1C(=O)O[C@@H]1[C@@H](C)[C@@]2(O)[C@@H](C=C(CO)C[C@]3(O)C(=O)C(C)=C[C@@H]23)[C@@H]2C(C)(C)[C@]12OC(C)=O`, the outcome (Carcinogen: 7,12-DIMETHYLBENZ[A]ANTHRACENE, 57-97-6, Doses [Carcinogen]: 10 NMOL ONCE, Doses [Promoter]: 0, 3.3 NMOL 2/WK FOR 20 WK (STUDY DURATION: 20 WK), Route [Carcinogen]: DERMAL, Route [Promoter]: DERMAL, Species: MOUSE, Strain/Sex: SENCAR) is given as “skin: papilloma”.
